Where two headings read alike, the source gives them in different places.
Assays:
[1] = Rate of DNA replication in activating egg extract with nocodazole; assay type: biochemical; conditions: 5 μg/ml nocodazole added to activating egg extract
[2] = test system: Xenopus erythrocyte nuclei; test: Induction optimization: P^32-dCTP incorporation into DNA of pretreated nuclei in activating egg extract, cycloheximide added at different times; assay type: biochemical; conditions: total 60 minutes at 25° C.
Description: Induction optimization was carried for Xenopus as describe below (see also Example 2, infra, for further optimization experiments). Xenopus erythrocyte nuclei were isolated and pretreated with lysolecithin and trypsin as described in Example 2 (described below). An activating egg extract was prepared from hardened eggs which were induced for 10 minutes as described above. Both the activating egg extract and the pretreated nuclei were kept on ice (about 4° C.). The activating egg extract was supplemented with 1 mM ATP (not used in the other examples described herein), 10 μg/ml creatine phosphokinase, 10 mM creatine phosphate, 10 μCi P^32-dCTP and combined with pretreated nuclei (about 200 nuclei/μl). Individual aliquots containing activated nuclei were shifted from 4° C. to 25° C. […] After 60 minutes, P^32-dCTP incorporation into newly synthesized DNA was determined.

[3] = test system: human fetal liver erythroid cell nuclei; test: Activation of human fetal liver erythroid cell nuclei in activating extract (swelling, replication, chromosome formation); assay type: biochemical; conditions: aphidicolin added at T=0
Description: Step 5: Activation of erythroid cell nuclei. Nuclear swelling, envelope formation, and replication were carried out on human fetal liver erythroid cell nuclei prepared using the optimal conditions described in steps 1-4 above. […] The resulting nuclei concentration was about 200/μl.
The following measurement were taken: DNA synthesis was monitored using extract containing P^32dCTP by gel electrophoresis; histone H1 kinase was measured; and samples, labelled with biotinylated-dUTP were taken for cytological analysis of DNA replication and nuclear envelope breakdown.
Experiments were also carried out to determine whether nuclear swelling was dependent on DNA synthesis, by activating nucleic in the presence of aphidicolin (added at T=0).
Swelled and replicated nuclei were treated with Cyclin-Δ90 or CSF extract. Cyclin-Δ90 was added to activating extract to obtain prophase mitotic chromosomes, while CSF extract was added to obtain metaphase chromosomes and nuclear envelope breakdown.

[4] = test system: Xenopus red blood cells nuclei; test: DNA replication in activated nuclei in caffeine supplemented activating egg extract; assay type: biochemical; conditions: caffeine at 1.0 mM in the presence of 0.3 μM cAMP; compared with 0.2 mM and 5.0 mM; FIG. 1
Description: The experimental conditions used were as described in Example 1 with the following changes: the concentration of cAMP was set at 0.3 μM and caffeine was added to the activating egg extract to a concentration of either 0.2 mM, 1.0 mM, or 5.0 mM.

[5] = test system: Xenopus red blood cells nuclei; conditions: for Cpm Incorporated After X Minutes: 23° C.
Description: The affect of cAMP on DNA replication in activated Xenopus red blood cells was determined.
Cyclic-AMP was then added to separate aliquots to yield final concentrations of 0.0 μM, 0.1 μM, 1.0 μM, or 10 μM.
Each aliquot was warmed to 23° C. and sampled over time to determine P^32-dCTP incorporation into replicated DNA. At each time point, a 7 μl aliquot was taken, frozen on dry ice, and later thawed and digested by the addition of 10 μl replication sample buffer (80 mM Tris (pH 8.0), 8 mM EGTA, 0.13% phosphoric acid, 10% Ficoll, 5% SDS, 0.2% bromphenol blue) containing proteinase K (1.0 mg/ml) for 2 hours at room temperature. Incorporated radioactivity was analyzed by electrophoresis on a 0.8% agarose gel (50V, 20 hours) followed by vacuum drying the gel and counting on a Betascope.

[6] = test system: Xenopus erythrocyte nuclei; test: DNA replication in activating egg extract after further pretreatment in CSF extract supplemented with DMAP; assay type: biochemical; conditions: 5 mM DMAP in CSF extract; FIG. 2
Description: Addition of 6-dimethylaminopurine (DMAP) to CSF extracts was used to further pretreat Xenopus erythrocyte nuclei and stimulate subsequent DNA replication in activating egg extract. DMAP can be used to inhibit nucleic acid synthesis and protein kinase activity. Xenopus erythrocyte nuclei were isolated and pretreated as described in Example 1 above, and incubated in thawed “prepared CSF extract” supplemented with 80 mM β-glycerol-PO4, and 5 μg/ml nocodazole at a concentration of 2000 nuclei/μl. Further pretreatment was carried out by incubation for 30 minutes at 4° C., then 30 minutes at 25° C., then 60 minutes at 4° C. Half the samples were supplemented with 5 mM DMAP before addition of the nuclei. After the two hours of incubation, each sample was diluted with 9 volumes of activating egg extract, supplemented with 5 μg/ml nocodazole (this dose of nocodazole slows down the rate of replication) and approximately 160 μCi/ml P^32-dCTP. Aliquots were removed over time to measure DNA replication.

erythrocyte nuclei = test: Supplements to CSF extract: chromatin assembly and later DNA synthesis in activating egg extract; assay type: biochemical, Xenopus
Text: After further pretreatment in CSF extract, the nuclei may be activated by adding 9 volumes of “prepared activating egg extract.” DNA replication, measured by incorporation of labelled nucleotides into DNA strands, may be used to determine the extent to which prior treatment in CSF extract enhances nuclear activation in activating extract. Labelled nucleotides useful in measuring nuclear DNA replication include microcurie amounts of P^32-dCTP for radioactive measurement of newly synthesized DNA, 16-50 μM biotinylated-dUTP or BrdUTP for fluorescent measurement of newly synthesized DNA, and 250 μM BrdUTP for density labelling of newly synthesized DNA.
Several supplements to CSF extract, in the proper concentration, increased the ability of CSF extract to enhance activation activity without resulting in premature DNA synthesis activity. Useful supplements include β-glycerol-PO4, Ca^2+, and protein kinase inhibitors. The addition of β-glycerol-PO4 increased the rate at which negatively supercoiled DNA relaxed in CSF extract and was subsequently assembled into chromatin. […] Beta-glycerol-PO4 is an inhibitor of phosphatase activity and may act by increasing the level of the phosphorylated functionally-active form of topoisomerase II in the CSF extract. […]

COC(=O)Nc1nc2ccc(C(=O)c3cccs3)cc2[nH]1 [nocodazole]
rate of DNA replication [1]: decreases

C[C@@H]1C[C@@H]([C@H](O)CC2CC(=O)NC(=O)C2)C(=O)[C@@H](C)C1 [CHM, Cycloheximide]
Cpm Incorporated into DNA ([2]; CHM 100 μg/ml added at 0 minutes, extract from eggs induced 10 minutes): 2,894 Cpm
Cpm Incorporated into DNA ([2]; CHM 100 μg/ml added at 5 minutes): 4,208 Cpm
Cpm Incorporated into DNA ([2]; CHM 100 μg/ml added at 15 minutes): 4,937 Cpm
Cpm Incorporated into DNA ([2]; CHM 100 μg/ml added at 30 minutes): 3,775 Cpm
Cpm Incorporated into DNA ([2]; CHM 100 μg/ml added at 45 minutes): 2,314 Cpm

C[C@@]1(CO)[C@H](O)CC[C@@]2(C)[C@H]1CC[C@H]1C[C@@H]3C[C@@]12CC[C@]3(O)CO [aphidicolin]
replication (biotin labelling) [3]: no replication took place
nuclear swelling ([3]; absence of replication): many nuclei swelled significantly

Cn1c(=O)c2c(ncn2C)n(C)c1=O [caffeine]
initial rate and extent of DNA replication in activated nuclei [4]: highest initial rate and extent of DNA replication

Nc1ncnc2c1ncn2[C@@H]1O[C@@H]2COP(=O)(O)O[C@H]2[C@H]1O [Cyclic AMP, Cyclic-AMP]
DNA replication in activated nuclei compared to without any cAMP ([5]; 0.1 μM cAMP): increased
DNA replication in activated nuclei compared to without any cAMP ([5]; 1.0 μM cAMP, compared with 0.1 μM): greater increase
DNA replication in activated nuclei compared to without any cAMP ([5]; 10 μM cAMP): inhibits DNA replication
Cpm Incorporated After X Minutes ([5]; 0.1 Micromoles of Cyclic AMP Added, after 0 minutes): 14 Cpm
Cpm Incorporated After X Minutes ([5]; 0.1 Micromoles of Cyclic AMP Added, after 45 minutes): 51 Cpm
Cpm Incorporated After X Minutes ([5]; 0.1 Micromoles of Cyclic AMP Added, after 90 minutes): 68 Cpm
Cpm Incorporated After X Minutes ([5]; 0.1 Micromoles of Cyclic AMP Added, after 135 minutes): 290 Cpm
Cpm Incorporated After X Minutes ([5]; 0.1 Micromoles of Cyclic AMP Added, after 180 minutes): 1,141 Cpm
Cpm Incorporated After X Minutes ([5]; 0.1 Micromoles of Cyclic AMP Added, after 240 minutes): 2,945 Cpm
Cpm Incorporated After X Minutes ([5]; 0.1 Micromoles of Cyclic AMP Added, after 300 minutes): 2,692 Cpm
Cpm Incorporated After X Minutes ([5]; 1.0 Micromoles of Cyclic AMP Added, after 0 minutes): 10 Cpm
Cpm Incorporated After X Minutes ([5]; 1.0 Micromoles of Cyclic AMP Added, after 45 minutes): 14 Cpm
Cpm Incorporated After X Minutes ([5]; 1.0 Micromoles of Cyclic AMP Added, after 90 minutes): 56 Cpm
Cpm Incorporated After X Minutes ([5]; 1.0 Micromoles of Cyclic AMP Added, after 135 minutes): 564 Cpm
Cpm Incorporated After X Minutes ([5]; 1.0 Micromoles of Cyclic AMP Added, after 180 minutes): 2,316 Cpm
Cpm Incorporated After X Minutes ([5]; 1.0 Micromoles of Cyclic AMP Added, after 240 minutes): 4,484 Cpm
Cpm Incorporated After X Minutes ([5]; 1.0 Micromoles of Cyclic AMP Added, after 300 minutes): 5,504 Cpm
Cpm Incorporated After X Minutes ([5]; 10 Micromoles of Cyclic AMP Added, after 0 minutes): 43 Cpm
Cpm Incorporated After X Minutes ([5]; 10 Micromoles of Cyclic AMP Added, after 45 minutes): 34 Cpm
Cpm Incorporated After X Minutes ([5]; 10 Micromoles of Cyclic AMP Added, after 90 minutes): 31 Cpm
Cpm Incorporated After X Minutes ([5]; 10 Micromoles of Cyclic AMP Added, after 135 minutes): 35 Cpm
Cpm Incorporated After X Minutes ([5]; 10 Micromoles of Cyclic AMP Added, after 180 minutes): 85 Cpm
Cpm Incorporated After X Minutes ([5]; 10 Micromoles of Cyclic AMP Added, after 240 minutes): 168 Cpm
Cpm Incorporated After X Minutes ([5]; 10 Micromoles of Cyclic AMP Added, after 300 minutes): 571 Cpm

CN(C)c1ncnc2nc[nH]c12 [DMAP, 6-dimethylaminopurine]
initial rate and total amount of DNA synthesis [6]: increased
lag time before the onset of replication [6]: decreased

[Ca+2].[Cl-].[Cl-] [Ca^2+, CaCl2]
amount and rate of DNA synthesis in erythrocyte nuclei after addition of activating egg extract (erythrocyte nuclei; 100 μM Ca^2+ added to CSF extract): increased both the amount and the rate of DNA synthesis

O=P(O)(O)OC(CO)CO [β-glycerol-PO4]
chromatin assembly in CSF extract (erythrocyte nuclei; about 80 mM β-glycerol-PO4): aid in chromatin assembly without causing DNA synthesis

From US6878546B2, “Product and method for swelling a cell nucleus without DNA replication” (Brandeis University, priority 1993, dated 2005)
